Where two headings read alike, the source gives them in different places.
What was measured:
HepG-2 = assay: Growth inhibition of tumor cells, HepG-2; assay type: cell-based; conditions: Homo sapiens, HepG2; read-out: IC50 against tumor cells, HepG-2
Protocol: (§1) Lung cancer cells A549 were separated into a 96-well plate and respectively added with 10 mM TZ47 stock solution to final concentrations of 0 μM, 0.1 μM, 0.5 μM, 1 μM, 2 μM, 4 μM and 8 μM in respective wells. Then the 96-well plate was incubated at 37° C. for 48 h and the growth of the cells was analyzed by a CCK-8 method. […] It can be seen from Table 1 that TZ47 also plays a desirable role in inhibiting the growth of other cancer cells including colorectal cancer, leukemia, liver cancer, melanoma, breast cancer and ovarian cancer.

A549 cells [1] = assay: Transwell cell migration test; assay type: cell-based; conditions: 2 μM, 12 h
Protocol: In addition, Transwell test was also conducted to determine the effect of the expression level of AURKB on the cell migration ability. Similarly, TZ47 (2 μM) was used to treat cells in the Transwell test. […] At the same time, compared to the control scr cells, AURKB-kd cells can partially antagonize the inhibitory effect of TZ47 on cell migration (FIGS. 10A-10B). […] The specific steps were described as follows. • a. Cell migration test • 1) The cells to be tested in the logarithmic growth phase was digested with trypsin and centrifuged to collect the cells. Then the cells were washed once with PBS and resuspended with serum-free DMEM for counting. • 2) 500 μl, of DMEM medium containing 10% FBS was added to a 24-well plate and a Transwell chamber was carefully placed into the plate to prevent air bubbles. Then 100 μL of cell suspension (about 50,000 cells) was added to the Transwell chamber, and a TZ47 solution (final concentration: 2 μM) was simultaneously added to the TZ47 treatment group. The 24-well plate was incubated at 37° C. and 5% CO2 in a cell incubator for 12 h. • 3) The Transwell chamber was removed from the plate and washed in PBS to remove the medium. […]

A549 cells [2] = assay: CCK-8 growth inhibition of A549 lung cancer cells; assay type: cell-based; conditions: Homo sapiens
Protocol: as §1

CaoV-3 = assay: Growth inhibition of tumor cells, CaoV-3; assay type: cell-based; conditions: Homo sapiens, read-out: IC50 against tumor cells, CaoV-3
Protocol: as §1

A549 cells [3] = assay: Colony formation assay; assay type: cell-based; conditions: 2 μM, 2 weeks
GST protein = GST protein (Schistosoma japonicum, UniProt P08515); assay: Microscale thermophoresis (MST) binding to control GST protein
Chain of GST protein (P08515 whole entry): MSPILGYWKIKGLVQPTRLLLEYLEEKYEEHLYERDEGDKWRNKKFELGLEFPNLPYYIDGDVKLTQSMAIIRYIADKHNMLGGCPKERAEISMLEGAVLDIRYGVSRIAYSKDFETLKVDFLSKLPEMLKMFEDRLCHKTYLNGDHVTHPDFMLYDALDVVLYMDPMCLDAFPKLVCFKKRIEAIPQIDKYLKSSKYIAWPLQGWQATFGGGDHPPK

- IC50 (HepG-2): 2180 ± 120 nM
- IC50 (A549 cells [2]; CCK-8, 48 h, read-out: IC50 of TZ47 against A549): 730 nM
- IC50 (A549 cells [2]; read-out: IC50 against tumor cells, A549): 730 ± 240 nM
- IC50 (CaoV-3): 4470 ± 120 nM
- binding to control GST protein (GST protein): did not bind
Structure (SMILES): c1ccc2c(Cc3[nH]c4ccccc4c3Cc3c[nH]c4ccccc34)c[nH]c2c1 [TZ47]
- migration ability of cells (A549 cells [1]): significantly showed inhibitory effect
- colony formation in control cells (A549 cells [3]): significantly inhibited

— US11840525B2, “Use of AURKB small-molecule inhibitors for treatment of non-small cell lung cancer” (Nanjing China-Australia Institute of Translational Medicine …, priority 2016, dated 2023)
